These are literature values, as cited in patent US8809393B2, “Injectable preparations of diclofenac and its pharmaceutically acceptable salts” (Troikaa Pharmaceuticals Ltd, priority 2005, dated 2014).

The series relates to erythrocytes. The conditions noted are these: aqueous solution of 2% propylene glycol iso-osmotic with serum, in 45 min.

Turning to `CC(O)CO` (stereo not shown) [propylene glycol], the haemolysis of erythrocytes was 100%.
